In data set [1] the target is T1, mMate2 (Mus musculus, UniProt Q3V050).
T1 construct: gene Slc47a2; full open reading frame
T1 sequence (Q3V050 1-573): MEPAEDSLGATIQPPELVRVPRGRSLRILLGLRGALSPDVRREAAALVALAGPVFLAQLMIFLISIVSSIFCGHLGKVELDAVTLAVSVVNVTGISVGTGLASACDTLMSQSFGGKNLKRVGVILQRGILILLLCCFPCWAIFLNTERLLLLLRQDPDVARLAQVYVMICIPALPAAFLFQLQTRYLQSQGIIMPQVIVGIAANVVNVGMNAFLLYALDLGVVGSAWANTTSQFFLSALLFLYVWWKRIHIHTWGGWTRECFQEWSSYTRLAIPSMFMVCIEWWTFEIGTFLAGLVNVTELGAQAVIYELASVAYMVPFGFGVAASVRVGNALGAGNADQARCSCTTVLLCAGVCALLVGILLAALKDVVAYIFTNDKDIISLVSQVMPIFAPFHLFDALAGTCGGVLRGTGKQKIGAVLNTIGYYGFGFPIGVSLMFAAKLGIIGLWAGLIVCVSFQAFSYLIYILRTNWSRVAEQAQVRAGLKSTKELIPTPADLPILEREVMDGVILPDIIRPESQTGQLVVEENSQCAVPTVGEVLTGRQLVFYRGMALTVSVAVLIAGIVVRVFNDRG
As to the kind of experiment: inhibition of [3H]MPP+ uptake in mMate2-HEK293 cells at […]. In kind it is cell-based.

Substrate in data set [2]: C[n+]1ccc(-c2ccccc2)cc1
As to the kind of experiment: cells, lysate or membranes.

Substrate in data set [3]: O=C(O[C@H]1C[C@H]2CC[C@@H](C1)[N+]21CCCC1)C(O)(c1ccccc1)c1ccccc1
As to the kind of experiment: [3H]trospium uptake in stably transfected HEK293 cells, Michaelis-Menten (Km). The format is cell-based, Mus musculus.

As for `C[C@H]1COc2c(N3CCN(C)CC3)c(F)cc3c(=O)c(C(=O)O)cn1c23` [levofloxacin], the “inhibition of [3H]MPP+ uptake in mMate2-HEK293 cells at 10 and 100 μM” value (“inhibition of [3H]MPP+ uptake” below) in data set [1] was “mMate2 was significantly inhibited by tetraethylammonium (TEA), topotecan, acyclovir, and levofloxacin”.
Turning to `CC[C@@]1(O)C(=O)OCc2c1cc1n(c2=O)Cc2cc3c(CN(C)C)c(O)ccc3nc2-1` [topotecan], the “inhibition of [3H]MPP+ uptake” value in data set [1] was “mMate2 was significantly inhibited by tetraethylammonium (TEA), topotecan, acyclovir, and levofloxacin”.
As to `Nc1nc2c(ncn2COCCO)c(=O)[nH]1` [acyclovir], the “inhibition of [3H]MPP+ uptake” value in data set [1] is “mMate2 was significantly inhibited by tetraethylammonium (TEA), topotecan, acyclovir, and levofloxacin”.
The same measure, in the same setting: the same measure for `CC[N+](CC)(CC)CC` [tetraethylammonium]: “mMate2 was significantly inhibited by tetraethylammonium (TEA), topotecan, acyclovir, and levofloxacin”.

B1: mMate2 (Mus musculus) (protein)
chain: MEPAEDSLGATIQPPELVRVPRGRSLRILLGLRGALSPDVRREAAALVALAGPVFLAQLMIFLISIVSSIFCGHLGKVELDAVTLAVSVVNVTGISVGTGLASACDTLMSQSFGGKNLKRVGVILQRGILILLLCCFPCWAIFLNTERLLLLLRQDPDVARLAQVYVMICIPALPAAFLFQLQTRYLQSQGIIMPQVIVGIAANVVNVGMNAFLLYALDLGVVGSAWANTTSQFFLSALLFLYVWWKRIHIHTWGGWTRECFQEWSSYTRLAIPSMFMVCIEWWTFEIGTFLAGLVNVTELGAQAVIYELASVAYMVPFGFGVAASVRVGNALGAGNADQARCSCTTVLLCAGVCALLVGILLAALKDVVAYIFTNDKDIISLVSQVMPIFAPFHLFDALAGTCGGVLRGTGKQKIGAVLNTIGYYGFGFPIGVSLMFAAKLGIIGLWAGLIVCVSFQAFSYLIYILRTNWSRVAEQAQVRAGLKSTKELIPTPADLPILEREVMDGVILPDIIRPESQTGQLVVEENSQCAVPTVGEVLTGRQLVFYRGMALTVSVAVLIAGIVVRVFNDRG
B1: the Km in data set [2] came out at 60.0 ± 5.6 µM.

B2: mMate1 (Mus musculus) (protein)
chain: MERTEESAPGPGGADAASERRGLRCLLLPGFLEELRALLVLAGPAFLAQLMMFLISFISSVFCGHLGKLELDAVTLAIAVINVTGISVGHGLSSACDTLISQTYGSQNLKHVGVILQRGTLILLLCCFPCWALFINTEQILLLFRQDPDVSRLTQTYVMIFIPALPAAFLYTLQVKYLLNQGIVLPQIMTGIAANLVNALANYVFLYHLHLGVMGSALANTISQFALAIFLFLYILWRRLHQATWGGWSWECLQDWASFLRLAIPSMLMLCIEWWAYEVGSFLSGILGMVELGAQSITYELAIIVYMIPSGFSVAANVRVGNALGAGNIDQAKKSSAISLIVTELFAVTFCVLLLGCKDLVGYIFTTDRDIVALVAQVIPIYAVSHLFEGLACTCGGILRGTGNQKVGAIVNAIGYYVIGLPIGIALMFAAKLGVIGLWSGIIICTTCQTTCFLAFIARLNWKRACQQAQVHANLKVNVALNSAVSHEPAHPVCPESHGEIMMTDLEKKDETQLDQPMNQQQALPIRPKDSNKLSGKQLALRRGLLLLGVVLVLVGGILVRVYIRIE
notes: full open reading frame
In the case of B2, the Michaelis-Menten constant (Km) in data set [3] turned out to be 29.3 ± 6.7 µM.

B3: mOct2 (Mus musculus) (protein)
chain: MPTVDDILEHIGEFHLFQKQTFFLLALLSGAFTPIYVGIVFLGFTPNHHCRSPGVAELSQRCGWSPAEELNYTVPGLGSAGEVSFLSQCMRYEVDWNQSTLDCVDPLSSLAANRSHLPLSPCEHGWVYDTPGSSIVTEFNLVCAHSWMLDLFQSLVNVGFFIGAVGIGYLADRFGRKFCLLVTILINAISGVLMAISPNYAWMLVFRFLQGLVSKAGWLIGYILITEFVGLGYRRTVGICYQIAFTVGLLILAGVAYALPNWRWLQFAVTLPNFCFLLYFWCIPESPRWLISQNKNAKAMKIIKHIAKKNGKSVPVSLQSLTADEDTGMKLNPSFLDLVRTPQIRKHTLILMYNWFTSSVLYQGLIMHMGLAGDNIYLDFFYSALVEFPAAFIIILTIDRIGRRYPWAVSNMVAGAACLASVFIPDDLQWLKITVACLGRMGITIAYEMVCLVNAELYPTYIRNLAVLVCSSMCDIGGIVTPFLVYRLTDIWLEFPLVVFAVVGLVAGGLVLLLPETKGKALPETIEDAEKMQRPRKKKEKRIYLQVKKAELS
notes: full open reading frame
Regarding B3, in data set [3], the Km is 78.5 ± 25.9 µM.

B4: mOct1 (Mus musculus) (protein)
chain: MPTVDDVLEHVGEFGWFQKQAFLLLCLISASLAPIYVGIVFLGFTPDHHCRSPGVAELSQRCGWSPAEELNYTVPGLGSAGEASFLSQCMKYEVDWNQSTLDCVDPLSSLAANRSHLPLSPCEHGWVYDTPGSSIVTEFNLVCGDAWKVDLFQSCVNLGFFLGSLVVGYIADRFGRKLCLLVTTLVTSLSGVLTAVAPDYTSMLLFRLLQGMVSKGSWVSGYTLITEFVGSGYRRTTAILYQVAFTVGLVGLAGVAYAIPDWRWLQLAVSLPTFLFLLYYWFVPESPRWLLSQKRTTQAVRIMEQIAQKNRKVPPADLKMMCLEEDASERRSPSFADLFRTPSLRKHTLILMYLWFSCAVLYQGLIMHVGATGANLYLDFFYSSLVEFPAAFIILVTIDRIGRIYPIAASNLVAGAACLLMIFIPHELHWLNVTLACLGRMGATIVLQMVCLVNAELYPTFIRNLGMMVCSALCDLGGIFTPFMVFRLMEVWQALPLILFGVLGLSAGAVTLLLPETKGVALPETIEEAENLGRRKSKAKENTIYLQVQTGKSPHT
notes: full open reading frame
For the molecule B4, in data set [3], the Km stood at 58.7 ± 15.5 µM.
